How the values were obtained:
human CB2 receptors = target: T1, human CB2 receptors (Homo sapiens, UniProt P34972); assay: [3H]-CP-55,940 competition binding, hCB2 CHO membranes
T1 construct: host or cells: CHO cells
Experimental: CHO cells transfected with human CB1 or CB2 receptors (Perkin Elmer Life and Analytical Sciences, USA) were grown adherently and maintained in Ham’s F12 containing 10% fetal bovine serum, penicillin (100 U/ml), streptomycin (100 µg/ml), and Geneticin (G418, 0.4 mg/ml) at 37 °C in 5% CO2/95% air. To obtain membranes, cells were washed with PBS and scraped off with ice-cold hypotonic buffer (5 mM Tris HCl, 2 mM EDTA, pH 7.4). The cell suspension was homogenized with a Polytron and then centrifuged for 30 min at 40,000 × g. […]
Competition binding experiments were carried out incubating 0.5 nM [^3H]-CP-55,940 (Perkin Elmer Life and Analytical Sciences, USA) and different concentrations of the tested compounds for 90 or 60 min at 30 °C for CB1 or CB2 receptors, respectively. […] Non-specific binding was determined in the presence of 1 mM WIN 55,212–2 (Vincenzi et al. [2013]). Bound and free radioactivity were separated by filtering the assay mixture through Whatman GF/C glass fiber filters using a Brandel cell harvester (Brandel Instruments, Unterföhring, Germany). The filter-bound radioactivity was counted using a Packard Tri Carb 2810 TR scintillation counter (Perkin Elmer Life and Analytical Sciences, USA).
The protein concentration was determined according to a Bio-Rad method (500–0006; Bio-Rad Laboratories, Hercules, CA, USA) with bovine serum albumin as a reference standard. […]

murine CB1 receptors = target: T2, murine CB1 receptors (Mus musculus, UniProt P47746); assay: [3H]-CP-55,940 competition binding, mouse brain (cortex) membranes; details: for selectivity index (ratio Ki CB2 / Ki CB1): murine CB receptors
T2 construct: membranes from mouse brain and spleen were used, respectively; from tissue
T2 sequence (P47746 whole entry): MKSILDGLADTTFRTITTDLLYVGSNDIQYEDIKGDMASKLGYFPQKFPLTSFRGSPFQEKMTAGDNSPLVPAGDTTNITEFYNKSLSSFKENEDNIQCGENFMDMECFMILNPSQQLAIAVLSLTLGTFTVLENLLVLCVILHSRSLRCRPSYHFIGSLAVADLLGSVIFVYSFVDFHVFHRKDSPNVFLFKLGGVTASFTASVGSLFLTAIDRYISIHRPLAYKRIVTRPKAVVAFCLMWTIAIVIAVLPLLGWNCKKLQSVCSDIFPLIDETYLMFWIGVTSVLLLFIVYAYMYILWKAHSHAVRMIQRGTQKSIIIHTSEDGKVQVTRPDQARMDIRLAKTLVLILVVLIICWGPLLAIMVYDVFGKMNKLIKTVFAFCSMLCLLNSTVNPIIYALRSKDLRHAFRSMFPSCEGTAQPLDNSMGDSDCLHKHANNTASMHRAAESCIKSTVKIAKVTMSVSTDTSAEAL
Experimental: To evaluate the affinity of synthetic cannabinoids for murine CB1 and CB2 receptors, membranes from mouse brain and spleen were used, respectively. Following excision from mice, tissues were suspended in 50 mM Tris HCl, pH 7.4 at 4 °C. The mouse brain and spleen tissues were homogenized with a Polytron and subsequently centrifuged for 10 min at 2000 × g. The resulting supernatants were filtered, centrifuged for 20 min at 40,000 × g and the pellets were used for competition binding experiments (Vincenzi et al. [2013]).
Competition binding experiments were carried out incubating 0.5 nM [^3H]-CP-55,940 (Perkin Elmer Life and Analytical Sciences, USA) and different concentrations of the tested compounds for 90 or 60 min at 30 °C for CB1 or CB2 receptors, respectively. For human cannabinoid receptors, membranes obtained from CHO cells transfected with human CB1 or CB2 receptors (2 µg protein/100 µl) were used. Competition binding experiments at murine cannabinoid receptors were performed with mouse brain membranes (40 µg protein/100 µl) or with mouse spleen membranes (80 µg protein/100 µl) for CB1 receptors or CB2 receptors, respectively. Non-specific binding was determined in the presence of 1 mM WIN 55,212–2 (Vincenzi et al. [2013]). Bound and free radioactivity were separated by filtering the assay mixture through Whatman GF/C glass fiber filters using a Brandel cell harvester (Brandel Instruments, Unterföhring, Germany). The filter-bound radioactivity was counted using a Packard Tri Carb 2810 TR scintillation counter (Perkin Elmer Life and Analytical Sciences, USA).
The protein concentration was determined according to a Bio-Rad method (500–0006; Bio-Rad Laboratories, Hercules, CA, USA) with bovine serum albumin as a reference standard. Inhibitory binding constants, Ki, were calculated from the IC50 values according to the Cheng and Prusoff equation: Ki = IC50/(1 + [C*]/KD*), where [C*] is the concentration of the radioligand and KD* its dissociation constant. Functional experiments were analyzed by non-linear regression analysis using the equation for a sigmoid concentration–response curve (GraphPad Prism, USA). All the data are expressed as the mean ± SEM of three independent experiments.

CD-1 male mice = assay: Novel Object Recognition (NOR) test; type: in vivo, mouse
Experimental: This test was performed according to the method reported by Ennaceur and Delacour ([1988]) and Antunes and Biala (2012). The test was conducted in three phases: habituation, familiarization, and choice. Firstly, CD-1 mice (n = 10/group) were subjected to a 3-day habituation phase, conducted by placing each animal into the NOR chamber (a square open field 60 cm × 60 cm × 40 cm, dark PVC plastic box) located in a dimly lit (50 lx), sound-attenuated and acclimatized room. Mice were allowed to explore freely for 20 min/day. No objects were placed in the box during the habituation trial. Twenty-four hours (h) after last habituation section, the familiarization trial was conducted by placing the mouse in the field in which two identical objects (A, A) were positioned in the corners of the arena approximately 6 cm from the walls. Mice were placed at the mid-point of the wall opposite to the objects and allowed to explore them for 15 min. Fifteen minutes after the familiarization phase, mice were injected with vehicle or drug (MAM-2201 and AM-2201) and tested in two consecutive choice sections performed 2 h (short-term memory) and 24 h (long-term memory) after the drug administration. During the choice test at 2 h, one of the two familiar objects (A) was replaced with a new one (novel; B), different in shape, dimension, and color. Each mouse was then placed in the apparatus and left free to explore the objects (A and B) for 5 min. In the choice test given at 24 h, the mice explored the open field for 5 min in the presence of one familiar (A) and one novel object (C, different from B). Exploration was defined as the time (s) during which the mouse nose was in contact with the object or directed toward it at a distance ≤ 2 cm. Turning around the object was not considered as exploratory behavior.
All experiments were performed using the ANY-maze video tracking system (Ugo Basile, application version 4.99 g Beta) and subsequently analyzed by an observer blind to the mouse treatment and to which object was the novel one. Exploration time of familiar (A) and novel (B) object was detected. The novel object preference was quantified as the Recognition Index (RI) calculated as: RI=novelB-familiarA/novelB+familiarA. Using this metric, scores approaching zero reflects no preference (impairment of recognition memory), positive values reflect preference for the novel object (good recognition memory) while negative numbers reflect preference for the familiar (impairment of recognition memory). Moreover, the total exploration time (s) spent by the animal in the choice phase at 2 h (familiar A + novel B) and 24 h (familiar A + novel C) was calculated to investigate the effect of drugs on object exploration.
The objects to be discriminated by mice were 7 sets of novel and familiar objects of different material (plastic, glass, or ceramic), shape (cube, parallelepiped, and cylinder), dimension (height: 3–8 cm; width: 6–8), and color (light yellow, red and blue). The set of objects used in the familiarization phase (two identical A, A objects) was used in the subsequent vehicle/drug conditions at 2 and 24 h. The choice of object for novel or familiar was counterbalanced and the position of each object was also alternated between trials to avoid any misinterpretation of data. The object weight was such that they could not be displaced by mice. To avoid mice olfactory cues, objects and apparatus were carefully cleaned with a dilute (5%) ethanol solution and water between animal trials and also between familiarization and choice phase (executed 2 and 24 h after the familiarization phase). Animals that spent less than 10 s exploring both objects were excluded from the study and replaced by other animals.

CB2 receptors = target: CB2 receptors; set-up: method as in Howlett et al. [2002]; Hess et al. [2015]; details: ref Howlett et al. [2002]; Hess et al. [2015]; read-out: CB2 receptor Ki; cited from earlier work

T1 sequence (P34972 whole entry): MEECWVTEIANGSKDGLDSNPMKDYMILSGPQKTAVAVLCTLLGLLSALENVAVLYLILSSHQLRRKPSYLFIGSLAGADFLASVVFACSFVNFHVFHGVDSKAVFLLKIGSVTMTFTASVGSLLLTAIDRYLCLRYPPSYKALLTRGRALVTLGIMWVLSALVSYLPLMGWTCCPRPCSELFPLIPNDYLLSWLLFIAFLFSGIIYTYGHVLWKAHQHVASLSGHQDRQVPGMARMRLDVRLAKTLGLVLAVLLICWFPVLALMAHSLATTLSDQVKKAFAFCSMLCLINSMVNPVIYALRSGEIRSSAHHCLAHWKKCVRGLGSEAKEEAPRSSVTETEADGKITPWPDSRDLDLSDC

SMILES | Ki (human CB2 receptors) [nM] | Ki (murine CB1 receptors) [nM] | selectivity index (ratio Ki CB2 / Ki CB1) (murine CB1 receptors) | effect on Total Object Exploration (TOE) time (CD-1 male mice; 0.1 mg/kg i.p.) | effect on Recognition Index (RI) (CD-1 male mice; 0.1 mg/kg i.p., 2 h) | effect on Total Object Exploration (TOE) time (CD-1 male mice; 1 mg/kg i.p., 2 and 24 h) | effect on Recognition Index (RI) (CD-1 male mice; 1 mg/kg i.p., 2 h) | effect on Recognition Index (RI) (CD-1 male mice; 0.1 and 1 mg/kg i.p., 24 h) | Ki (CB2 receptors) [nM]
O=C(c1cccc2ccccc12)c1cn(CCCCCF)c2ccccc12 [AM-2201, 1-[(5-Fluoropentyl)-1H-indol-3-yl](1-naphthylenyl) methanone] | 16.4 ± 1.5 | 1.96 ± 0.13 | 7.4 | did not alter | RI reduction | impaired | reversal | significant reduction | 2.6
Cc1ccc(C(=O)c2cn(CCCCCF)c3ccccc23)c2ccccc12 [MAM-2201, 1-[(5-fluoropentyl)-1H-indol-3-yl](4-methyl-1-naphthalenyl) methanone] | 10.3 ± 2.1 | 1.07 ± 0.23 | 9.0 | did not alter | significantly reduced | impaired | negative score | significant decrease | 0.582 ± 0.123
